The target in assay [1] is Nuclear receptor subfamily 5 group A member 2 (Homo sapiens, UniProt O00482). Format: functional, cell-based.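 Further: HEK293T cells transfected with LRH-1 and a StAR promoter luciferase reporter; potency for inhibitors that lower LRH-1 driven reporter light.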
A further assay addresses Steroidogenic factor 1 (Homo sapiens, UniProt Q13285). The experiment in a line: Counterscreen for inverse agonists of the liver receptor homolog-1 (LRH-1; NR5A2): Luminescence-based cell-based high throughput dose response assay to identify inverse agonists of the Steroidogenic Factor 1 Nuclear Receptor (SF1; NR5A1). Format: functional. In general terms: A counterscreen serves to expose hits that act by an unwanted route or on another target.

Assay [2] is described as follows: StAR promoter reporter inhibition counter-screen, dose response, counter-screen for LRH-1 inverse agonist project, cell-based, luminescence, luciferase reporter (AID 651969). Format: functional.
The target in assay [3] is T1, Rac GTPase-activating protein 1 (Homo sapiens, UniProt Q9H0H5).
T1 sequence (Q9H0H5 whole entry): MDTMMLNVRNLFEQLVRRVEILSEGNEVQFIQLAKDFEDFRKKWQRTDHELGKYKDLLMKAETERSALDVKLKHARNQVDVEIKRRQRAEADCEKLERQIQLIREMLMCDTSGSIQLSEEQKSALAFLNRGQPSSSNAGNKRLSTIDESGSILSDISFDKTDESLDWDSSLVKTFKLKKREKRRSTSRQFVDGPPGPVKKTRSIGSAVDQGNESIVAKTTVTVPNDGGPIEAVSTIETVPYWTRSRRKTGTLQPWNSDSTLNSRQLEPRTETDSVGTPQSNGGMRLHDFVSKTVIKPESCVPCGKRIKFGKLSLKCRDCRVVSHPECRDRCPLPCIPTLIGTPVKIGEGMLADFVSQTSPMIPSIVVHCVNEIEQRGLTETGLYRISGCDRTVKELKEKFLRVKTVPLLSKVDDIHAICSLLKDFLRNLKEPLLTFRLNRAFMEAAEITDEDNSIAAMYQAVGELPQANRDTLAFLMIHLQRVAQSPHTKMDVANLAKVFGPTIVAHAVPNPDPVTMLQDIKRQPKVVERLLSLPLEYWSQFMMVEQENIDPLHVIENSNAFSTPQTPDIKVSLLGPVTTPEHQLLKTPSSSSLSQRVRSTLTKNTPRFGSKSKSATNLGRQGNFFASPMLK
The experiment in a line: MgcRacGAP GTPase-activating activity inhibitors, confirmation, biochemical, ADP Hunter fluorescence, primary and confirmatory (AID 624330). Format: functional.

Assay [4] has as its target Glucose-6-phosphate 1-dehydrogenase (Homo sapiens, UniProt P11413). Kind of assay: human G6PD enzyme inhibitors, dose response, selectivity assay for P. falciparum G6PD inhibitor project, biochemical, fluorescence (AID 504792). Format: functional.
The nature of assay [5]: HeLa cell cytotoxicity, dose response, cytotoxicity control for MgcRacGAP inhibitor project (AID 624300). Format: functional.
In assay [6] the target is 5-hydroxytryptamine receptor 2A (Mus musculus, UniProt P35363). Format: functional, cell-based.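 Further: CHO-K1 cells with tagged receptor and beta-arrestin; agonist potency measured as compound-induced activation of the receptor.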
Sequence of 5-hydroxytryptamine receptor 2A (P35363 whole entry): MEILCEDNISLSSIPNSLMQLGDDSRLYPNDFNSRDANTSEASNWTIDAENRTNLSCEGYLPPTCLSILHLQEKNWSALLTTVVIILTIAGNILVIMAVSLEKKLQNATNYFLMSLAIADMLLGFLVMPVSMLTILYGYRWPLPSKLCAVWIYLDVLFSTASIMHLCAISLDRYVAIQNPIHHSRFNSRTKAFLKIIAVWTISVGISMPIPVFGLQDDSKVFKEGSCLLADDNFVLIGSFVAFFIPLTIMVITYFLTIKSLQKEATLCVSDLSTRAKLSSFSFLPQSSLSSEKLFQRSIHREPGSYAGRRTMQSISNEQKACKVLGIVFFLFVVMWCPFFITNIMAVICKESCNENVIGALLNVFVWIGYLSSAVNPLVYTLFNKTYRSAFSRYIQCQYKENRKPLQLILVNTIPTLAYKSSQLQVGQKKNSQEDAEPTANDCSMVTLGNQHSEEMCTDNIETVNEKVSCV
The target of another assay is Mu-type opioid receptor (Homo sapiens, UniProt P35372). Format: functional, cell-based.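 Further: U2OS cells with beta-arrestin recruitment to OPRM1 by beta-gal complementation.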
Sequence of Mu-type opioid receptor (P35372 whole entry): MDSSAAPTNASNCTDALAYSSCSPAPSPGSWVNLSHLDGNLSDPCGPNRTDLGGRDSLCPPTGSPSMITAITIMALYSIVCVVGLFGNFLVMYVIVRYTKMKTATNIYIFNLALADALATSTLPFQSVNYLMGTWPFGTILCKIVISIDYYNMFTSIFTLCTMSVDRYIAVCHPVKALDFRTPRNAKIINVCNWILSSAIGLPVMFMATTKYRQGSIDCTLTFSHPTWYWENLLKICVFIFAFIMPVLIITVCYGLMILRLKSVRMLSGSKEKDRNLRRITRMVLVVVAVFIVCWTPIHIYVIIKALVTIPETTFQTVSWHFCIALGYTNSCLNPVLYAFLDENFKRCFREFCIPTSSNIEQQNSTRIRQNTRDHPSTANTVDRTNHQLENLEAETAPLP
Assay [7] addresses T2, RNA-binding protein pos-1 (Caenorhabditis elegans, UniProt G5EF15).
T2 sequence (G5EF15 whole entry): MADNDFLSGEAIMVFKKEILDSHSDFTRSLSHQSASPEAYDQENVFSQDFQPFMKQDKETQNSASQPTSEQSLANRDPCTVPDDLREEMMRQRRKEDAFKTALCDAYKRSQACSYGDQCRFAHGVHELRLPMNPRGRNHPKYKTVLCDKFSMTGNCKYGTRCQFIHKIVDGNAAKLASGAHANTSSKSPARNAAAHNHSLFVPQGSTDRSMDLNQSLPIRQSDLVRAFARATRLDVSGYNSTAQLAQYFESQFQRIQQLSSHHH
The experiment in a line: inhibitors of POS-1/mex-3 RNA binding, dose response, biochemical, fluorescence polarization (AID 1964).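 Further: purified POS-1 fused to maltose binding protein made in E. coli; potency of compounds blocking POS-1 binding to fluorescent RNA.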 For orientation: In fluorescence polarisation assays a small probe gives low polarisation when free and higher when bound to something large.

Assay [8] concerns the target T3, Zinc finger protein mex-5 (Caenorhabditis elegans, UniProt Q9XUB2).
T3 sequence (Q9XUB2 whole entry): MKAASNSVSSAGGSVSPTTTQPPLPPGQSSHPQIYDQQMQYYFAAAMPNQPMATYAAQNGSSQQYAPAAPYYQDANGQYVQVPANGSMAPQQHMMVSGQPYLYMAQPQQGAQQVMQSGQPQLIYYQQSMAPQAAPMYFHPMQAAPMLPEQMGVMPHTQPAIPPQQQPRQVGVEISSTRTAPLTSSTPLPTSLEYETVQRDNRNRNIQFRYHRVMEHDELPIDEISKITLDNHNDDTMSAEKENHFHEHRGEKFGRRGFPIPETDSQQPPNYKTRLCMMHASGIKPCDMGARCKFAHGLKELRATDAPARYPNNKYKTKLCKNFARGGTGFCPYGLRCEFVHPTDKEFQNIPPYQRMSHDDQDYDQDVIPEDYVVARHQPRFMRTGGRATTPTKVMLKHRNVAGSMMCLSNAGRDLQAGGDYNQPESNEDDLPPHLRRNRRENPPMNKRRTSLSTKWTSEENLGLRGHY
Kind of assay: MEX-5/TCR-2 RNA interaction inhibitors, dose response, biochemical, C. elegans, fluorescence polarization (AID 1960).

Assay [9] deals with T4, Tyrosine-protein phosphatase non-receptor type 11 (Homo sapiens, UniProt Q06124).
T4 sequence (Q06124 whole entry): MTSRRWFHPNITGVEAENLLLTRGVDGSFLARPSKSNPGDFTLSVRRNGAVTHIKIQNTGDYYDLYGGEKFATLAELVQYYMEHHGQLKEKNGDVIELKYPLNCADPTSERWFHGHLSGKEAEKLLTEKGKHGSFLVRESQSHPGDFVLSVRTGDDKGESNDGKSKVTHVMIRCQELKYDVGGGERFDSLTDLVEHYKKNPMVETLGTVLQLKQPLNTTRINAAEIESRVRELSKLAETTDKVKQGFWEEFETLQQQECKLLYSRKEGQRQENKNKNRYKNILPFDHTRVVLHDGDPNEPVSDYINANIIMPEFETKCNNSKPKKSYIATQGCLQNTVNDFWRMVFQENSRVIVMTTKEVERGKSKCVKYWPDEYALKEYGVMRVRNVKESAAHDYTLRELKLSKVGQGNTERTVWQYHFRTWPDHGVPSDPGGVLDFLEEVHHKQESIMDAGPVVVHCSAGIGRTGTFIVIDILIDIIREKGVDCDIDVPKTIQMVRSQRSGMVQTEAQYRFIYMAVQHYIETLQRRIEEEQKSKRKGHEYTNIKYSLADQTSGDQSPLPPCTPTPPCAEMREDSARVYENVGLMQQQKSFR
Kind of assay: SHP2 phosphatase inhibition, dose response, selectivity assay for STEP inhibitor project, biochemical (AID 602367). Format: functional. The note with it: read-out: IC50_Mean.

For assay [10], the target named is T5, Carboxy-terminal domain RNA polymerase II polypeptide A small phosphatase 1 (Homo sapiens, UniProt Q9GZU7).
T5 sequence (Q9GZU7 whole entry): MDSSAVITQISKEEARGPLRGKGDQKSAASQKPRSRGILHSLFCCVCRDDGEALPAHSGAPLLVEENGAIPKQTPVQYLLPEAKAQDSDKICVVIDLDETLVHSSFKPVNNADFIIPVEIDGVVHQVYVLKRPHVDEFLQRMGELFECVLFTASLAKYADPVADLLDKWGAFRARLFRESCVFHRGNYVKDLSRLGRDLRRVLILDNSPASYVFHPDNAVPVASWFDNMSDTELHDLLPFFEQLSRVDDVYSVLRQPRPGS
The experiment in a line: inhibitors of CTDSP1, concentration-response testing, biochemical assay, absorbance-based, actives from ultra-high-throughput screening (AID 540297). Format: functional.

Assay [11] deals with Dual specificity protein phosphatase 3 (Homo sapiens, UniProt P51452). Kind of assay: VHR phosphatase inhibition, dose response, selectivity assay for STEP inhibitor project, biochemical (AID 602374). Format: functional. The following applies: read-out: IC50_Mean.
Sequence of Dual specificity protein phosphatase 3 (P51452 whole entry): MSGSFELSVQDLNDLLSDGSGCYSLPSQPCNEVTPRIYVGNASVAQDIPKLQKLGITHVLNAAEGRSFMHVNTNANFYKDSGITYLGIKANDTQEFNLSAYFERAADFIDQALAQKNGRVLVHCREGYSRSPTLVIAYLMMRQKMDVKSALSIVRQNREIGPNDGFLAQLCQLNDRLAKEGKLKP
Assay [12] addresses T6, Tyrosine-protein phosphatase non-receptor type 5 (Homo sapiens, UniProt P54829).
T6 sequence (P54829 whole entry): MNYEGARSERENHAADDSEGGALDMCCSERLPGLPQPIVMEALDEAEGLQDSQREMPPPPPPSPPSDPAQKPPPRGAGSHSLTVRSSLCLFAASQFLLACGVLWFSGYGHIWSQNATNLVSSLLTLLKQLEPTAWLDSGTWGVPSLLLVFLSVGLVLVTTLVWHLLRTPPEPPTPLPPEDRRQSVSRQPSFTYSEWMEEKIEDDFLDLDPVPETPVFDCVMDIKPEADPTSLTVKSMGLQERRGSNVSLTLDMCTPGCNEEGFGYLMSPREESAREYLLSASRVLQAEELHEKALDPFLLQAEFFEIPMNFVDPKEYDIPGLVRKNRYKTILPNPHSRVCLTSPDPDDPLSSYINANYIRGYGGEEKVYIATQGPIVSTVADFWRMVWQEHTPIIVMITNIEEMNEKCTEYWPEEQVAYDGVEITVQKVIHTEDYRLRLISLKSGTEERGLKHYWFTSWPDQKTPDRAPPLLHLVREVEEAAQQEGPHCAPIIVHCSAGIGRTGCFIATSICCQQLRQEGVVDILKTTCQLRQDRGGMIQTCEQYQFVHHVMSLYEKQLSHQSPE
The experiment in a line: STEP phosphatase inhibitors, confirmation, biochemical, fluorescence intensity, uHTS hits (AID 602372). Format: functional. The note with it: read-out: IC50_Mean.

Activity calls are given as the source filed them.

Sequence of Nuclear receptor subfamily 5 group A member 2 (O00482 whole entry): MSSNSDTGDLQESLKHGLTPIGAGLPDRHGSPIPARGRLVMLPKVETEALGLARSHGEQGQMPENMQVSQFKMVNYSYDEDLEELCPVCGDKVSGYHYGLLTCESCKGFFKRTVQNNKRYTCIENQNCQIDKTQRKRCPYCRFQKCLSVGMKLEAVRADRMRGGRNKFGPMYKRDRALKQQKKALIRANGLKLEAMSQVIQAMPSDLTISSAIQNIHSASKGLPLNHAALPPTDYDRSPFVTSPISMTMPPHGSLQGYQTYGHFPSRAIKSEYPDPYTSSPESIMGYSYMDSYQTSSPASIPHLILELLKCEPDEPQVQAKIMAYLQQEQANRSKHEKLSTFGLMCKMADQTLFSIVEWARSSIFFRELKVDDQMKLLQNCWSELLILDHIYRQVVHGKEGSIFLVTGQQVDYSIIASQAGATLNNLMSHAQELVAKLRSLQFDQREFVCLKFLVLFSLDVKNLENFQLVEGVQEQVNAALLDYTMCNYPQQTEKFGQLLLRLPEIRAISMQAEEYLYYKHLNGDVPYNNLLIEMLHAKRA
Sequence of Steroidogenic factor 1 (Q13285 whole entry): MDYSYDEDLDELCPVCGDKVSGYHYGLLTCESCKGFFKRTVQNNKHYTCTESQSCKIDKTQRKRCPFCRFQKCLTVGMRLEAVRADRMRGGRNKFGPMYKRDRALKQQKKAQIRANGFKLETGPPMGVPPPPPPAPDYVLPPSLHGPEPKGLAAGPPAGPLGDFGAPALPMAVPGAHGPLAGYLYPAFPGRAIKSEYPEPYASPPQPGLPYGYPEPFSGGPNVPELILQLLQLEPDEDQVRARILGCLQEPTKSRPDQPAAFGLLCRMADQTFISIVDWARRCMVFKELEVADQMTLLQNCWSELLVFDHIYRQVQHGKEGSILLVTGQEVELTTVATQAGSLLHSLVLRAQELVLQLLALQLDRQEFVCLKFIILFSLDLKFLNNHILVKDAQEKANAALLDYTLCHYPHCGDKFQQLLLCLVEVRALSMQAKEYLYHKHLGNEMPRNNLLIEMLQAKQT
Sequence of Glucose-6-phosphate 1-dehydrogenase (P11413 whole entry): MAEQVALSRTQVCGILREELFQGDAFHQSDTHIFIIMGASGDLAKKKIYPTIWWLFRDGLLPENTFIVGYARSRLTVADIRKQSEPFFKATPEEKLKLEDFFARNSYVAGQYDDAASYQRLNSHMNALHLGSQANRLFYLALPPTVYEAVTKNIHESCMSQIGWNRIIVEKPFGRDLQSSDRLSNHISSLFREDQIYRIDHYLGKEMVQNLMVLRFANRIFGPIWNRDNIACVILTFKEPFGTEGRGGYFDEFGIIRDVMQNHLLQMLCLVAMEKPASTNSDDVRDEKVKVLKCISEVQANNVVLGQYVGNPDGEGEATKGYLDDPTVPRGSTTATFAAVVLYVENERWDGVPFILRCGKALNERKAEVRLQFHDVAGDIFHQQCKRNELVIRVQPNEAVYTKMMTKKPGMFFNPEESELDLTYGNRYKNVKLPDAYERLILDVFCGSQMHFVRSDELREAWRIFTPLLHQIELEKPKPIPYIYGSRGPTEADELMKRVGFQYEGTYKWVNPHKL

With `COc1ccc(CCNC(=O)COC(=O)C23CC4CC(CC(C4)C2)C3)cc1`, the IC50 was 28.6 µM (inactive) in assay [1], 2.17 µM (active) on Steroidogenic factor 1 and 35.9 µM (inactive) in [2].

By CC50 is commonly meant the concentration at which the toxic effect on the cells reaches its halfway point. With `Cn1c(=O)c2c(nc(S)n2CCCc2ccccc2)n(C)c1=O`, the IC50 in [3] was 16.1 µM (active); in [4], 60.7 µM (inactive). Further, the CC50 in assay [5] was 100 µM (active).

What is called EC50 is the concentration giving half of the maximal effect. On to `Cc1cccc(CN2CCN(c3ccccn3)CC2)c1`, for which the EC50 was 0.128 µM (active) in assay [6] and 92.5 µM (inactive) on Mu-type opioid receptor.

Turning to `Cc1nn(Cc2ccccc2)c(C)c1C(=O)OCC(=O)Nc1ccccc1SCC#N`, the IC50 in assay [1] was 1.33 µM (active); on Steroidogenic factor 1, 2.41 µM (active); in [2], 35.9 µM (inactive).

With `O=C1NC(=O)N(c2ccccc2)C(=O)/C1=C/c1coc2ccc(O)cc2c1=O`, the IC50 in assay [3] is 110 µM (active). Besides, the EC50 in [7] and in assay [8] was > 300 µM (not active) each time. The CC50 in assay [5] is 100 µM (active).

In the case of `CCOc1ccc(NC(=O)CSc2nncc(=O)n2N)cc1`, the IC50 in assay [1] is 35.9 µM (inactive); at Steroidogenic factor 1 it was 12 µM (inactive); in [2], 35.9 µM (inactive).

`O=C(N/N=C/c1ccc(Br)cc1)c1ccc(Br)o1`: the IC50 in assay [9] is 9.11 µM (active); in [10], 6.85 µM (active); in assay [11] it was 8.79 µM (active); in assay [12], 17.1 µM (active).
